Source: patent US20060217303A1, “Compounds and Methods for Treating Seizure Disorders” (Wisconsin Alumni Research Foundation, priority 2005, published 2006)

What was measured:
[1] = Duration of anticonvulsant effect of 2DG after stopping treatment while continuing twice daily stimulation; type: in vivo; settings: 250 mg/kg twice daily for 3 months; twice daily stimulation continued
Experimental: . […]; 5 mM solutions of oxaloacetate glycolic acid, chloroacetate and thioglycolate are equivalent to 660 mg/kg 380 mg/kg, ˜620 mg/kg and 460 mg/kg. respectively. […] A practitioner skilled in the art can adjust dosage in the range up to 500-600 mg/kg 2DG and the timing of administration to produce prolonged anticonvulsant and antiepileptic effects. Efficacious dosage amounts can be adjusted to about 14 mg/kg 2-DG in children and 40 mg/kg 2-DG in adults, using therapeutic efficacy measurements (e.g., reduction in frequency or severity of seizures) as a criterion for establishing effective dosage levels.

[2] = test system: CA3 region of rat hippocampal slices; assay: Synchronized bursting induced by elevated [K+]o in rat hippocampal slices ex corpora (extracellular CA3 recording); type: cell-based; settings: for synchronized bursting: 10 mM glucose; for epileptic discharges evoked in vitro (relative burst frequency) / epileptiform bursting frequency: normal glucose conditions; for epileptic discharges evoked in vitro (relative burst frequency): summary statement; for block of the increase in bursting caused by the PEPCK inhibitor 3-MCP: slices simultaneously exposed to 3-MCP, FIGS. 5A, 5B; for burst frequency: 20 mM lactate or 20 mM pyruvate in place of 10 mM glucose in ACSF, 7.5 mM [K+]o; for epileptiform bursting frequency: FIG. 6A
Experimental: The effect of various energy sources on synchronized bursting induced by elevation of [K^+]o in rat hippocampal slices ex corpora was evaluated.
In these experiments, postnatal day 28 to 40 male Sprague-Dawley rats were anesthetized and decapitated. Brains were removed and transferred to ice cold artificial cerebrospinal fluid (ACSF, comprising 124 mM NaCl, 5 mM KCl, 1.25 mM NaH2PO4, 1.5 mM MgSO4, 26 mM NaHCO3 and 2 mM CaCl2), supplemented with 10 mM glucose, which was continuously bubbled with 95% O2 and 5% CO2. Transverse hippocampal slices (˜500 microns) were prepared on a Leica VT1000s vibratome (Wetzlar Germany). The slices were allowed to recover for 1 hour at room temperature and were then transferred to an interface recording chamber at 34° C. in ACSF with 7.5 mM [K^+]o. Extracellular recordings were made from the CA3 region with an Axioclamp 2B (Axon Instruments, Forest City, Calif.) using a glass microelectrode filled with 150 mM NaCl. Data were recorded and analyzed using PClamp8 (Axon Instruments).
Synchronized bursting was induced by incubating hippocampal slices in ACSF supplemented with potassium chloride to a final concentration of 7.5 mM [K^+]o. Baseline recordings were obtained after exposure to elevated [K^+]o for 1 hour and the burst frequency had stabilized. Bursting was then recorded in ACSF containing 20 mM lactate or 20 mM pyruvate in place of the 10 mM glucose.

[3] = test system: brains of animals suffering from a seizure disorder; settings: as disclosed in co-owned U.S. Ser. No. 60/580,436; cited from earlier work

O=CC[C@@H](O)[C@H](O)[C@H](O)CO [2DG, 2-deoxy-D-glucose]
duration of anticonvulsant effects after stopping 2DG [1]: approximately 8 weeks | synchronized bursting ([2]; 1 mM 2DG in the presence of 20 mM lactate): reduced synchronized bursting | epileptic discharges evoked in vitro (relative burst frequency) [2]: effective against epileptic discharges | block of the increase in bursting caused by the PEPCK inhibitor 3-MCP [2]: could not be blocked | epileptic or synchronized bursting in the brains of animals [3]: effective in reducing epileptic or synchronized bursting

O=C(O)CI [iodoacetate, reference compound]
synchronized bursting ([2]; 200 μM iodoacetate, ACSF with 20 mM lactate): reduced synchronized bursting | epileptic discharges evoked in vitro (relative burst frequency) [2]: effective against epileptic discharges | block of the increase in bursting caused by the PEPCK inhibitor 3-MCP [2]: could not be blocked | epileptic or synchronized bursting in the brains of animals [3]: effective in reducing epileptic or synchronized bursting

O=C(O)c1ncccc1S [3-MCP, 3-mercaptopicolinic acid, reference compound]
burst frequency (rate of bursting) ([2]; 3 mM 3-MCP in ACSF with 10 mM glucose): 208±28 % of baseline | rate of bursting ([2]; 3-MCP, FIGS. 5A and 5B): induces an increase in the rate of bursting

O=C(O)[C@@H](O)CO [L-glycerate]
epileptic discharges evoked in vitro (relative burst frequency) [2]: effective against epileptic discharges

CC(O)C(=O)O (stereo not shown) [lactate, reference compound]
burst frequency ([2]; reversible): 63±8 % of the baseline

C=C(OP(=O)(O)O)C(=O)O [PEP, phosphoenolpyruvate, reference compound]
burst frequency (rate of bursting) ([2]; 5 mM PEP in ACSF with 10 mM glucose, reversible): 215±32 % of baseline

O=C(O)CO [glycolic acid]
block of the increase in bursting caused by inhibition of PEPCK by 3-MCP ([2]; PEPCK substrate with 3-MCP, FIGS. 6B, 6C): modestly blocks an increase in bursting | epileptiform bursting frequency [2]: reduce epileptiform bursting frequency | epileptic discharges evoked in vitro (relative burst frequency) [2]: effective against epileptic discharges

CC(=O)C(=O)O [pyruvate, reference compound]
burst frequency ([2]; reversible): 4±2 % of the baseline

O=C(O)CCl [β-chloroacetate]
epileptiform bursting frequency [2]: reduce epileptiform bursting frequency | epileptic discharges evoked in vitro (relative burst frequency) [2]: effective against epileptic discharges

thioglycolate
epileptiform bursting frequency [2]: reduce epileptiform bursting frequency | epileptic discharges evoked in vitro (relative burst frequency) [2]: effective against epileptic discharges
